The record followed here is patent US20230339886A1 (University of Florida Research Foundation, Incorporated, priority 2020, published 2023).

The target in this experiment is T1, REV-ERBα LBD (human; residues 281-614 Δ324-422) (Homo sapiens, UniProt P20393, DEL324-422).
T1 construct: 6×Histag-REV-ERBα LBD (human; residues 281-614 Δ324-422); made in house; host or cells: Escherichia coli
T1 sequence (P20393 with tags, fused parts or gaps DEL324-422): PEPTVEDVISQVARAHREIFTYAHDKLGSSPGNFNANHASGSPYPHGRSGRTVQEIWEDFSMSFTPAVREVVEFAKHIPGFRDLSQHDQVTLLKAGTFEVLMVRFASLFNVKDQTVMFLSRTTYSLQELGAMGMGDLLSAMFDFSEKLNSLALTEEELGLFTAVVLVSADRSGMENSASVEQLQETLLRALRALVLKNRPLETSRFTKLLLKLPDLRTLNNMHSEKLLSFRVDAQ
T1 sequence (Q9Y618 2335-2356 partner limits assumed): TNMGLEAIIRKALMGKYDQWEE
As to the kind of experiment: TR-FRET corepressor interaction assay (REV-ERBα LBD, FITC-SMRT peptide). It is filed as biochemical. To be noted: FITC-SMRT peptide, read-out: REVERBα agonism (EC50 class, FRET assay). The method, boiled down: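 Compound serial dilutions (in DMSO, triplicate) incubated 2 h at 4 °C; Tb donor excited at 340 nm, emission read at 495 nm and FITC acceptor at 520 nm. TR-FRET ratio (520/495 nm) plotted against ligand concentration and fitted to a sigmoidal dose-response curve.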
As usually defined, the EC50 is the concentration giving half of the maximal effect. `CC(C)(C)Cn1cc([C@H](NS(=O)(=O)C2CCC2)C(F)(F)F)c2ccc(-c3ccccc3C(F)(F)F)nc21` [Example 492, N-[(1S)-1-[1-(2,2-dimethylpropyl)-6-[2-(trifluoromethyl)phenyl]pyrrolo[2,3-b]pyridin-3-yl]-2,2,2-trifluoro-ethyl]cyclobutanesulfonamide]: the concentration giving a half-maximal response (EC50) was less than 500 nM. With `CC(C)(C)Cn1cc([C@H](NS(=O)(=O)C2CCC2)C(F)(F)F)c2ccc(-c3ccccc3C(F)(F)F)cc21` [Example 494, (S)—N-(2,2,2-trifluoro-1-(1-neopentyl-6-(2-(trifluoromethyl)phenyl)-1H-indol-3-yl)ethyl)cyclobutanesulfonamide] the figure was less than 500 nM.

Take `CC(C)(C)Cn1cc([C@H](NS(=O)(=O)C2CCC2)C(F)(F)F)c2ccc(-c3ccccc3C#N)cc21` [Example 495, (S)—N-(1-(6-(2-cyanophenyl)-1-neopentyl-1H-indol-3-yl)-2,2,2-trifluoroethyl)cyclobutanesulfonamide]: the EC50 was less than 500 nM. On to `CC(C)(C)Cn1cc([C@H](NS(=O)(=O)C2CCC2)C(F)(F)F)c2ccc(-c3c(F)cccc3C(F)(F)F)cc21` [Example 496, (S)—N-(2,2,2-trifluoro-1-(6-(2-fluoro-6-(trifluoromethyl)phenyl)-1-neopentyl-1H-indol-3-yl)ethyl)cyclobutanesulfonamide], for which the half-maximal effective concentration (EC50) was less than 500 nM. In the case of `CC(C)(C)Cn1cc([C@H](NS(=O)(=O)C2CCC2)C(F)(F)F)c2ccc(-c3ccc(F)cc3C(F)(F)F)cc21` [Example 497, (S)—N-(2,2,2-trifluoro-1-(6-(4-fluoro-2-(trifluoromethyl)phenyl)-1-neopentyl-1H-indol-3-yl)ethyl)cyclobutanesulfonamide], the EC50 is less than 500 nM.

`CC(C)Cn1cc(C(CS(=O)(=O)C2CC2)C(F)(F)F)c2ccc(-c3ccccc3C(F)(F)F)cc21` (stereo not drawn) [Example 498, 3-(3-(cyclopropylsulfonyl)-1,1,1-trifluoropropan-2-yl)-1-isobutyl-6-(2-(trifluoromethyl)phenyl)-1H-indole]: the EC50 lay in the range of 500 to 3000 nM.

In the case of `CC(C)Cn1cc([C@H](NS(=O)(=O)C2CCC2)C(F)(F)F)c2ccc(-c3ccccc3C(F)(F)F)cc21` [Example 499, (S)—N-(2,2,2-trifluoro-1-(1-isobutyl-6-(2-(trifluoromethyl)phenyl)-1H-indol-3-yl)ethyl)cyclobutanesulfonamide], the 50% effective concentration (EC50) was less than 500 nM.

For the compound `Cc1ccc2c([C@H](NS(=O)(=O)C3CCC3)C(F)(F)F)cn(CC(C)(C)C)c2c1` [Example 500, (S)—N-(2,2,2-trifluoro-1-(6-methyl-1-neopentyl-1H-indol-3-yl)ethyl)cyclobutanesulfonamide], the concentration giving a half-maximal response (EC50) was less than 500 nM. Take `CC(C)(C)Cn1cc([C@H](NS(=O)(=O)C2CCC2)C(F)(F)F)c2ccc(C3CC3)cc21` [Example 501, (S)—N-(1-(6-cyclopropyl-1-neopentyl-1H-indol-3-yl)-2,2,2-trifluoroethyl)cyclobutanesulfonamide]: the EC50 was less than 500 nM.

Take `CCS(=O)(=O)NCCn1cc(CC(C)(C)C)c2cc(-c3ccc(C(F)(F)F)cc3C(F)(F)F)ccc21` [Example 502, N-(2-(5-(2,4-bis(trifluoromethyl)phenyl)-3-neopentyl-1H-indol-1-yl)ethyl)ethanesulfonamide]: the EC50 was less than 500 nM. As to `CC(C)(C)Cc1cn(CCNS(=O)(=O)C2CCCC2)c2ccc(-c3ccc(C(F)(F)F)cc3C(F)(F)F)cc12` [Example 503, N-(2-(5-(2,4-bis(trifluoromethyl)phenyl)-3-neopentyl-1H-indol-1-yl)ethyl)cyclopentanesulfonamide], the EC50 was less than 500 nM. As for `CC(C)C(=O)n1cc([C@H](NS(=O)(=O)C2CCC2)C(F)(F)F)c2ccc(-c3ccccc3C(F)(F)F)cc21` [Example 504, (S)—N-(2,2,2-trifluoro-1-(1-isobutyryl-6-(2-(trifluoromethyl)phenyl)-1H-indol-3-yl)ethyl)cyclobutanesulfonamide], the EC50 is less than 500 nM.
